Entries after “also recorded” stand apart in the source; their conditions may differ. Counter-ions that a name gives are not always drawn.

We go through one molecule from patent publication US11633443B2, “Algal extract comprising sulphated and non-sulphated polyanionic polysaccharides and uses thereof” (Amadeite, priority 2012, dated 2023).

This test concerns adult male Wistar rats. Nature of the test: Behavioural despair test (BDT). It is filed as in vivo, rat. The protocol: The anti-depressant effects of an algal extract according to the invention (AE), administered orally as a preventive treatment with 3 doses (10, 20 and 40 mg/kg/d) were evaluated in adult male Wistar rats in the behavioural despair test (BDT).
The extract was daily administered as a semi-chronic treatment for 14 days. The effects of the extract were evaluated in the BDT on groups of 12 rats as compared with a control batch treated with the carrier (spring water) and a reference batch treated with Imipramine at the dose of 10 mg/kg/d.
Sixty male Wistar rats (Charles River Laboratories, France) weighing from 200-225 g were used. Upon receiving them, the rats were marked and distributed in groups of 4 in polycarbonate cages of the F type (48×27×20 cm, U.A.R., 91-Epinay-Sur-Orge, France). The animals were housed in an air-conditioned animal housing facility, at a temperature of 22±2° C. and a relative humidity of 50±20%. The rats had standard feed 2016 (Harlan, Gannat, France) and drink ad libitum. They were subject to a reverse light-darkness cycle of 12 hours.
After getting used to the conditions of the laboratory for one week, the rats were weighed and randomized according to their weight in 5 treatment groups (n=12/group).
The experimental devices consisted in Plexiglas cylinders with a height of 50 cm and a diameter of 20 cm filled with water at 25° C. up to a height of 30 cm.
After 13 days of daily treatment with the products to be tested, the rats were placed at D14 in the devices for a period of 15 minutes in order to evaluate the immobility time of each animal. Immediately after this first test, the rats received their 14th treatment.
At D15, the rats received two treatments: the first, 5 hours before the test and the second 1 hour before the test. This procedure is usually used in the literature for testing the efficiency of a product against depression. The test was conducted under the same conditions as the day before for a period of 5 minutes.
The recorded immobility duration during the first 5 minutes of both tests (at D14 and D15) reflects the capacity of the animal of resigning itself when it is confronted with a situation from which it cannot escape. This resignation behaviour is assimilated with depression.
The product is an AE (algal extract) as a powder representing a freeze-dried and crushed concentrated fraction of a water-soluble algal extract prepared according to Example no. 1. The extract to be tested was dissolved in spring water and was administered to the rats orally at one of the 3 tested doses for 15 successive days with an administration volume of 5 ml/kg. The animals were weighed every two or three days in order to adapt their specific treatments to their weight. Their food and water intakes were noted every two or three days during the whole duration of the study.
The animals of the Reference group receive daily 10 mg/kg/d of Imipramine hydrochloride (Sigma Aldrich) dissolved in spring water with an administration volume of 5 ml/kg.
ANOVA in parametric mode was applied, followed, in the case of heterogeneity, by comparisons by means of the non-paired t-test for comparing the treated groups with the Carrier group and the Reference group.
Paired ANOVA was used, followed, in the case of heterogeneity, by comparisons with the paired t-test for two by two comparisons of repeated measurements of BDT in each of the groups.

As to `CN(C)CCCN1c2ccccc2CCc2ccccc21` [Imipramine, Imipramine hydrochloride], the “immobility time at D15 compared with the Carrier (in words)” value (10 mg/kg/d) was “significantly shorter”. Also, the “Immobility duration in the behavioural despair test at D15 (Average ± ESM)” value (10 mg/kg/d orally, 5 minutes test, n = 12) was found to be 3.8 ± 1.0 s. The “Immobility duration in the behavioural despair pre-test at D14 (Average ± SME)” value (10 mg/kg/d orally, first 5 minutes, n = 12) was determined as 16.3 ± 4.6 s. In addition, the “change of immobility time between D14 and D15 (in words)” value (10 mg/kg, hydrochloride) is “significantly decrease; also recorded: significantly reduced”. Further, under “Imipramine 10 mg/kg, AE at the three tested doses (10, 20, 40 mg/kg)”, the “immobility duration at D14: difference between Carrier, Imipramine and AE groups” value is “no significant difference”.
